{
  "source": "patent US20090042987A1",
  "about": "“TREATMENT OF NEUROPATHIC PAIN” (priority 2007, published 2009)",
  "test_system": "drug-naïve STZ-diabetic rats",
  "assay": "von Frey paw withdrawal thresholds, drug-naïve STZ-diabetic rats, Example 2",
  "type": "in vivo, rat",
  "settings": "for Mean duration of action / Time of peak anti-allodynia post-dosing: 7th twice-daily dose; for Mean (±SEM) AUC (area under the normalized PWT versus time curve) / Mean (±SEM) Peak response (PWT) / Mean (±SEM) % MPR at peak: after 7th consecutive twice-daily dose; for Mean (±SEM) % MPR at peak: 100% MPR = full reversal of tactile allodynia",
  "description": "Experimental Animals Ethical approval for this study was obtained from the Animal Experimentation Ethics Committee of The University of Queensland. Adult male Sprague-Dawley (SD) rats (222±4 g) were used for this study. Rats were housed in a temperature controlled room (21+2.0 C) with a 12/12 hour light/dark cycle. Food and water were available ad libitum. Initiation of drug administration occurred at 8-11 weeks post-STZ administration for rats in Experiment 1 (PCT-001) and at 10-12 weeks post-STZ administration for rats in Experiment 2 (PCT-007).\nTest Article Tranilast was supplied by the Sponsor and stored at −4° C. until use. Gabapentin (100 mg/kg, dissolved in water for injection) was utilized as the positive control for this study.\nTest Article and Vehicle Preparation Test article formulations were prepared freshly on the day of administration by weighing the appropriate amount of bulk powder and suspending it in the required volume of vehicle. Carboxymethyl cellulose ((CMC) 0.5% in water for injection) was utilized as the vehicle for this study.\nTest Article Administration. […] The maximum oral gavage volume administered in this study was […]. 4.4\nSTZ-Diabetic Rat Model of Painful Diabetic Neuropathy. Painful diabetic neuropathy is a common long-term complication of diabetes in humans that develops as a result of a sustained biochemical nerve injury. […] Following the induction of diabetes with intravenous STZ at 70-80 mg/kg, it generally takes 6-8 wks for tactile allodynia, the defining symptom of PDN, to fully develop in both rat hindpaws.\nInduction of STZ-Diabetes in Rats. On day 0, rats were anaesthetized with 3% isoflurane:97% O2 and a short polyethylene cannula (0.5 mm ID, 0.8 mm OD) was inserted into the jugular vein to facilitate the intravenous (i.v.) administration of a single dose of streptozotocin (STZ: 70-80 mg/kg). After STZ injection, the cannula was removed and the jugular vein was tied off and the wound was closed. Rats received subcutaneous benzylpenicillin (60 mg) prior to surgery to prevent infection and were kept warm during surgical recovery. Rats were housed singly prior to further experimentation and were monitored daily from the time of STZ administration with regard to general health and well-being.\nVon Frey Assessment of Paw Withdrawal Thresholds. Calibrated von Frey filaments were used to determine the lowest mechanical threshold required to evoke a brisk paw withdrawal reflex in the rat hindpaws. Briefly, rats were transferred individually to wire mesh testing cages (20 cm×20 cm×20 cm) and allowed to acclimatize for approximately 10-20 min prior to von Frey testing. Commencing with the von Frey filament that produced the 6 g force, the filament was applied to the plantar surface of the hindpaw until the filament buckled slightly. Absence of a response after 3 s prompted use of the next filament of increasing weight. A withdrawal response within 3 s prompted use of the next filament of decreasing weight. Filaments used produced buckling weights of 2, 4, 6, 8, 10, 12, 14, 16, 18 and 20 g. […] Tactile allodynia is regarded as being fully developed when von Frey PWTs in the injured hindpaws are <6 g.\nRestoring von-Frey PWTs in the hindpaws from <6 g to pre-STZ surgery levels (12±2 g) is the treatment goal representing full reversal of tactile allodynia. If drug treatment increases PWTs above pre-surgical baseline values (i.e. >12±2 g), such a response is classified as antinociception. Before administration of STZ, baseline von Frey measurements were assessed. Following STZ administration, baseline PWTs were assessed in the hindpaws at week 8-11 to confirm the development of diabetes-induced tactile allodynia.\nDose-Response Curve for Tranilast in Drug-Naive STZ-Diabetic Rats. […]",
  "key": {"[1]": {"settings": "tranilast 100, 200, 300 and 400 mg/kg oral, 7 consecutive twice-daily doses"}},
  "note": "“Also recorded” adds a separate entry of the source.",
  "data": [
    {"smiles": "COc1ccc(/C=C/C(=O)Nc2ccccc2C(=O)O)cc1OC", "note": "[Tranilast, 2-[[3-(3,4-dimethoxyphenyl)-1-oxo-2-propenyl]amino]benzoic acid]", "values": [
      {"measurement": "Mean (±SEM) von Frey Paw Withdrawal threshold following the 7th consecutive dose", "setting": "tranilast 300 mg/kg oral twice-daily, time 0.75 h", "value": "11 ± 1.6", "unit": "g"},
      {"measurement": "Mean (±SEM) von Frey Paw Withdrawal threshold following the 7th consecutive dose", "setting": "tranilast 300 mg/kg oral twice-daily, time 1 h", "value": "12.2 ± 1.3", "unit": "g"},
      {"measurement": "Mean (±SEM) von Frey Paw Withdrawal threshold following the 7th consecutive dose", "setting": "tranilast 300 mg/kg oral twice-daily, time 1.25 h", "value": "13 ± 1.3", "unit": "g"},
      {"measurement": "Mean (±SEM) von Frey Paw Withdrawal threshold following the 7th consecutive dose", "setting": "tranilast 300 mg/kg oral twice-daily, time 1.25 h, listed as tranilast", "value": "13.0 (±1.3) g"},
      {"measurement": "Mean (±SEM) von Frey Paw Withdrawal threshold following the 7th consecutive dose", "setting": "tranilast 300 mg/kg oral twice-daily, time 1.5 h", "value": "12.4 ± 1.1", "unit": "g"},
      {"measurement": "Mean (±SEM) von Frey Paw Withdrawal threshold following the 7th consecutive dose", "setting": "tranilast 300 mg/kg oral twice-daily, time 2 h", "value": "12.0 ± 2.2", "unit": "g"},
      {"measurement": "Mean (±SEM) von Frey Paw Withdrawal threshold following the 7th consecutive dose", "setting": "tranilast 300 mg/kg oral twice-daily, time 3 h", "value": "9.0 ± 2.7", "unit": "g"},
      {"measurement": "Relief of tactile allodynia in the hindpaws", "setting": "tranilast 300 mg/kg oral, 7 consecutive twice-daily doses (n=5)", "value": "significant relief of tactile allodynia"},
      {"measurement": "AUC of anti-allodynic response versus time compared with vehicle", "setting": "tranilast 300 mg/kg oral, 7th consecutive twice-daily dose", "value": "significantly greater (p<0.05)"},
      {"measurement": "Mean duration of action", "setting": "tranilast 300 mg/kg oral", "value": "> 3", "unit": "h"},
      {"measurement": "Time of peak anti-allodynia post-dosing", "setting": "tranilast 300 mg/kg oral", "value": "1 to 1.5", "unit": "h"},
      {"measurement": "Mean (±SEM) AUC (area under the normalized PWT versus time curve)", "setting": "tranilast 300 mg/kg oral", "value": "17.2 ± 3.3"},
      {"measurement": "Mean (±SEM) Peak response (PWT)", "setting": "tranilast 300 mg/kg oral", "value": "13.0 ± 1.3"},
      {"measurement": "Mean (±SEM) % MPR at peak", "setting": "tranilast 300 mg/kg oral", "value": "147.8 ± 23.6", "unit": "%"},
      {"measurement": "Mean (±SEM) von Frey Paw Withdrawal threshold assessed prior to dose", "setting": "tranilast 400 mg/kg oral twice-daily, prior to dose 1", "value": "5.1 ± 0.5", "unit": "g"},
      {"measurement": "Mean (±SEM) von Frey Paw Withdrawal threshold assessed prior to dose", "setting": "tranilast 400 mg/kg oral twice-daily, prior to dose 3", "value": "5.1 ± 0.5", "unit": "g"},
      {"measurement": "Mean (±SEM) von Frey Paw Withdrawal threshold assessed prior to dose", "setting": "tranilast 400 mg/kg oral twice-daily, prior to dose 5", "value": "4.8 ± 0.5", "unit": "g"},
      {"measurement": "Mean (±SEM) von Frey Paw Withdrawal threshold assessed prior to dose", "setting": "tranilast 400 mg/kg oral twice-daily, prior to dose 7", "value": "5.2 ± 0.5", "unit": "g"},
      {"measurement": "Mean (±SEM) von Frey Paw Withdrawal threshold following the 7th consecutive dose", "setting": "tranilast 400 mg/kg oral twice-daily, time 0 h (pre-dose)", "value": "5.2 ± 0.4", "unit": "g"},
      {"measurement": "Mean (±SEM) von Frey Paw Withdrawal threshold following the 7th consecutive dose", "setting": "tranilast 400 mg/kg oral twice-daily, time 0 h (pre-dose), listed as tranilast", "value": "5.2 (±0.4) g"},
      {"measurement": "Mean (±SEM) von Frey Paw Withdrawal threshold following the 7th consecutive dose", "setting": "tranilast 400 mg/kg oral twice-daily, time 0.15 h", "value": "6.0 ± 0", "unit": "g"},
      {"measurement": "Mean (±SEM) von Frey Paw Withdrawal threshold following the 7th consecutive dose", "setting": "tranilast 400 mg/kg oral twice-daily, time 0.5 h", "value": "6.25 ± 0.2", "unit": "g"},
      {"measurement": "Mean (±SEM) von Frey Paw Withdrawal threshold following the 7th consecutive dose", "setting": "tranilast 400 mg/kg oral twice-daily, time 0.75 h", "value": "7.5 ± 0.5", "unit": "g"},
      {"measurement": "Mean (±SEM) von Frey Paw Withdrawal threshold following the 7th consecutive dose", "setting": "tranilast 400 mg/kg oral twice-daily, time 1 h", "value": "8.75 ± 0.25", "unit": "g"},
      {"measurement": "Mean (±SEM) von Frey Paw Withdrawal threshold following the 7th consecutive dose", "setting": "tranilast 400 mg/kg oral twice-daily, time 1 h, listed as tranilast", "value": "8.8 (±0.3) g"},
      {"measurement": "Mean (±SEM) von Frey Paw Withdrawal threshold following the 7th consecutive dose", "setting": "tranilast 400 mg/kg oral twice-daily, time 1.25 h", "value": "7.8 ± 0.25", "unit": "g"},
      {"measurement": "Mean (±SEM) von Frey Paw Withdrawal threshold following the 7th consecutive dose", "setting": "tranilast 400 mg/kg oral twice-daily, time 1.5 h", "value": "8.0 ± 0", "unit": "g"},
      {"measurement": "Mean (±SEM) von Frey Paw Withdrawal threshold following the 7th consecutive dose", "setting": "tranilast 400 mg/kg oral twice-daily, time 2 h", "value": "7.8 ± 0.25", "unit": "g"},
      {"measurement": "Mean (±SEM) von Frey Paw Withdrawal threshold following the 7th consecutive dose", "setting": "tranilast 400 mg/kg oral twice-daily, time 3 h", "value": "6.5 ± 0.3", "unit": "g"},
      {"measurement": "Mean duration of action", "setting": "tranilast 400 mg/kg oral", "value": 3, "unit": "h"},
      {"measurement": "Time of peak anti-allodynia post-dosing", "setting": "tranilast 400 mg/kg oral", "value": "0.75 to 1.25", "unit": "h"},
      {"measurement": "Mean (±SEM) AUC (area under the normalized PWT versus time curve)", "setting": "tranilast 400 mg/kg oral", "value": "6.3 ± 0.9"},
      {"measurement": "Mean (±SEM) Peak response (PWT)", "setting": "tranilast 400 mg/kg oral", "value": "8.75 ± 0.25"},
      {"measurement": "Mean (±SEM) % MPR at peak", "setting": "tranilast 400 mg/kg oral", "value": "62.2 ± 4.2", "unit": "%"},
      {"measurement": "Peak anti-allodynic response compared with vehicle", "setting": "[1]", "value": "significantly (p<0.05) greater"},
      {"measurement": "Relief of tactile allodynia in the hindpaws", "setting": "[1]", "value": "significant relief of tactile allodynia; also recorded: anti-allodynia was produced"},
      {"measurement": "% MPR at the time of peak effect compared with vehicle", "setting": "tranilast 100, 200, 300 and 400 mg/kg oral, 7th consecutive twice-daily dose", "value": "significantly greater than that for vehicle"},
      {"measurement": "AUC of anti-allodynic response versus time compared with vehicle", "setting": "tranilast 100, 200 and 400 mg/kg oral, 7th consecutive twice-daily dose", "value": "did not reach statistical significance"},
      {"measurement": "Dosing regimen producing the maximum anti-allodynic effect", "setting": "tranilast 100-400 mg/kg oral, 7 consecutive twice-daily doses", "value": "maximum anti-allodynic effect appeared to be produced by the 300 mg/kg dosing regimen"},
      {"measurement": "Baseline PWT thresholds assessed prior to dose 1, 3, 5 and 7", "setting": "tranilast at all doses (100-400 mg/kg oral twice-daily)", "value": "not significantly different"}
    ]}
  ]
}
